Measurements from patent publication US6670345B1 (Dabur Research Foundation, priority 1997, dated 2003).
Values after ≈ are worked out from the molar mass of the structure shown.

Experiments:
Details in all cases: 72 hours
leukemia cells (MOLT-4) = assay: MTT cytotoxicity assay, leukemia cells (MOLT-4); type: cell-based, human
Experimental: (§1) After 72 hours, the assay was terminated and percent cyotoxicities calculated.

human lung (L132) = assay: MTT cytotoxicity assay, human lung (L132); type: cell-based
Experimental: as §1

human larynx (HeP.2) = assay: MTT cytotoxicity assay, human larynx (HeP.2); type: cell-based
Experimental: as §1

human colon (HT29) = assay: MTT cytotoxicity assay, human colon (HT29); type: cell-based
Experimental: as §1

lymphoma cells (U937) = assay: MTT cytotoxicity assay, lymphoma cells (U937); type: cell-based, human
Experimental: as §1

[1] = tested on: ovarian cancer cells (PA-1); assay: MTT cytotoxicity assay, ovarian cancer cells (PA-1); type: cell-based, human
Experimental: as §1

human prostate (DU145) = assay: MTT cytotoxicity assay, human prostate (DU145); type: cell-based
Experimental: as §1

Compound | ED50 Leukemia MOLT-4 (leukemia cells (MOLT-4)) [µg/mL] | ED50 Lung L 132 (human lung (L132)) [µg/mL] | ED50 Larynx Hep. 2 (human larynx (HeP.2)) [µg/mL] | ED50 Colon HT-29 (human colon (HT29)) [µg/mL] | ED50 Lymphoma U937 (lymphoma cells (U937)) [µg/mL] | ED50 Ovary PA-I [1] [µg/mL] | ED50 Prostate DU 145 (human prostate (DU145)) [µg/mL]
CC(C)C1CCC2(C(=O)O)CCC3(C)C(CCC4C5(C)CCC(N=Cc6ccc(F)c(F)c6)C(C)(C)C5CCC43C)C12 (centres unmarked) [Derivative 998] | 1.9 (≈ 3.27 µM) | 2.5 (≈ 4.3 µM) | 3.0 (≈ 5.16 µM) | 4.0 (≈ 6.87 µM) | 1.6 (≈ 2.75 µM) | 1.2 (≈ 2.06 µM) | 2.2 (≈ 3.78 µM)
CC(C)C1CCC2(C(=O)O)CCC3(C)C(CCC4C5(C)CCC(OC(=O)c6ccccc6C(F)(F)F)C(C)(C)C5CCC43C)C12 (centres unmarked) [Derivative 943] | 1.6 (≈ 2.54 µM) | 4.0 (≈ 6.34 µM) | 2.0 (≈ 3.17 µM) | >10 | 3.2 (≈ 5.07 µM) | >4.0 | >4
CC(C)C1CCC2(C(=O)OC(=O)C34CCC(C(C)C)C3C3CCC5C6(C)CC(Br)C(=O)C(C)(C)C6CCC5(C)C3(C)CC4)CCC3(C)C(CCC4C5(C)CC(Br)C(=O)C(C)(C)C5CCC43C)C12 (centres unmarked) [Derivative 1163] | 1.6 (≈ 1.52 µM) | 6.5 (≈ 6.17 µM) | 5.0 (≈ 4.75 µM) | 7.3 (≈ 6.93 µM) | 3.8 (≈ 3.61 µM) | >4.0 | 6.0 (≈ 5.7 µM)
C=C(C)C1CCC2(C(=O)OCC(=O)OC)CCC3(C)C(CCC4C5(C)CCC(NCCO)C(C)(C)C5CCC43C)C12 (centres unmarked) [Derivative 1027] | 2.0 (≈ 3.5 µM) | 7.0 (≈ 12.2 µM) | 4.2 (≈ 7.34 µM) | 7.2 (≈ 12.6 µM) | 4.5 (≈ 7.87 µM) | >4.0 | 5.7 (≈ 9.97 µM)
C=CC(=O)OC(=O)C12CCC(C(=C)C)C1C1CCC3C4(C)CCC(O)C(C)(C)C4CCC3(C)C1(C)CC2 (centres unmarked) [Derivative 1101] | 1.9 (≈ 3.72 µM) | 1.7 (≈ 3.33 µM) | 1.6 (≈ 3.13 µM) | >10 | 1.2 (≈ 2.35 µM) | 3.5 (≈ 6.85 µM) | >10
CC(C)C1CCC2(C(=O)O)CCC3(C)C(CCC4C5(C)CCC(NNc6ccccc6)C(C)(C)C5CCC43C)C12 (centres unmarked) [Derivative 878] | 1.6 (≈ 2.92 µM) | 0.8 (≈ 1.46 µM) | 2.25 (≈ 4.1 µM) | 1.75 (≈ 3.19 µM) | 0.4 (≈ 0.729 µM) | 3.5 (≈ 6.38 µM) | –
C=C(C)C1CCC2(C(=O)O)CCC3(C)C(CCC4C5(C)CCC(OC(=O)c6ccc(CCCCC)cc6)C(C)(C)C5CCC43C)C12 (centres unmarked) [Derivative 1104] | 1.5 (≈ 2.38 µM) | 5.9 (≈ 9.35 µM) | 1.7 (≈ 2.69 µM) | 3.5 (≈ 5.55 µM) | 1.1 (≈ 1.74 µM) | 0.8 (≈ 1.27 µM) | 2.0 (≈ 3.17 µM)
C=C(C)C1CCC2(C(=O)O)CCC3(C)C(CCC4C5(C)CCC(OC(=O)c6ccc(CCCCCCC)cc6)C(C)(C)C5CCC43C)C12 (centres unmarked) [Derivative 1138] | 2.0 (≈ 3.03 µM) | 7.0 (≈ 10.6 µM) | 2.0 (≈ 3.03 µM) | >10 | 1.1 (≈ 1.67 µM) | 1.3 (≈ 1.97 µM) | >10
COC(=O)COC(=O)C12CCC(C(C)C)C1C1CCC3C4(C)CCC(NC(C)=O)C(C)(C)C4CCC3(C)C1(C)CC2 (centres unmarked) [Derivative 1025] | 1.0 (≈ 1.75 µM) | 3.2 (≈ 5.6 µM) | >10 | >10 | >10 | >4.0 | >4
C=CC(=O)OC(=O)C12CCC(C(C)C)C1C1CCC3C4(C)CCC(O)C(C)(C)C4CCC3(C)C1(C)CC2 (centres unmarked) [Derivative 1103] | 1.9 (≈ 3.71 µM) | 4.0 (≈ 7.8 µM) | 3.0 (≈ 5.85 µM) | 10.0 (≈ 19.5 µM) | 1.0 (≈ 1.95 µM) | 1.5 (≈ 2.93 µM) | >4
CC(C)C1CCC2(C(=O)O)CCC3(C)C(CCC4C5(C)CCC(NC(=O)CCl)C(C)(C)C5CCC43C)C12 (centres unmarked) [Derivative 1022] | 1.8 (≈ 3.37 µM) | 4.7 (≈ 8.8 µM) | 3.5 (≈ 6.55 µM) | >10 | 5.5 (≈ 10.3 µM) | 0.6 (≈ 1.12 µM) | >10
CC(C)C1CCC2(C(=O)OC3CCC4(C)C(CCC5(C)C4CCC4C6C(C(C)C)CCC6(C(=O)O)CCC45C)C3(C)C)CCC3(C)C(CCC4C5(C)CC(Br)C(=O)C(C)(C)C5CCC43C)C12 (centres unmarked) [Derivative 1161] | 0.34 (≈ 0.348 µM) | 3.5 (≈ 3.58 µM) | 1.4 (≈ 1.43 µM) | 3.5 (≈ 3.58 µM) | 0.3 (≈ 0.307 µM) | 1.2 (≈ 1.23 µM) | 0.4 (≈ 0.41 µM)
CC(C)C1CCC2(C(=O)O)CCC3(C)C(CCC4C5(C)CCC(OC(=O)c6ccc(F)cc6F)C(C)(C)C5CCC43C)C12 (centres unmarked) [Derivative 937] | 0.9 (≈ 1.5 µM) | 1.1 (≈ 1.84 µM) | 5.9 (≈ 9.85 µM) | 1.7 (≈ 2.84 µM) | 1.2 (≈ 2 µM) | 1.6 (≈ 2.67 µM) | 2.5 (≈ 4.17 µM)
CC(C)C1CCC2(C(=O)O)CCC3(C)C(CCC4C5(C)CCC(=NNc6ccc(F)cc6)C(C)(C)C5CCC43C)C12 (centres unmarked) [Derivative 829] | 0.4 (≈ 0.708 µM) | >4 | >10 | 1.3 (≈ 2.3 µM) | 0.5 (≈ 0.885 µM) | 0.5 (≈ 0.885 µM) | >10
C=C(C)C1CCC2(C(=O)O)CCC3(C)C(CCC4C5(C)CCC(OC(=O)C67CCC(C(C)C)C6C6CCC8C9(C)CC(Br)C(=O)C(C)(C)C9CCC8(C)C6(C)CC7)C(C)(C)C5CCC43C)C12 (centres unmarked) [Derivative 1155] | 1.1 (≈ 1.13 µM) | >10 | >10 | >10 | >10 | >4.0 | >10
CC(C)C1CCC2(C(=O)O)CCC3(C)C(CCC4C5(C)CCC(=NNC(=O)c6ccccc6)C(C)(C)C5CCC43C)C12 (centres unmarked) [Derivative 807] | 1.0 (≈ 1.74 µM) | <0.5 | 4.0 (≈ 6.96 µM) | – | – | 1.7 (≈ 2.96 µM) | >10
C=C(C)C1CCC2(C(=O)O)CCC3(C)C(CCC4C5(C)CCC(OC(=O)Cc6cc(OC)ccc6OC)C(C)(C)C5CCC43C)C12 (centres unmarked) [Derivative 1108] | 1.5 (≈ 2.36 µM) | 4.6 (≈ 7.25 µM) | 1.7 (≈ 2.68 µM) | >10 | 1.0 (≈ 1.58 µM) | 1.3 (≈ 2.05 µM) | >4
CC(C)C1CCC2(C(=O)O)CCC3(C)C(CCC4C5(C)CCC(OS(C)(=O)=O)C(C)(C)C5CCC43C)C12 (centres unmarked) [Derivative 789] | 2.0 (≈ 3.73 µM) | 6.5 (≈ 12.1 µM) | >10 | 1.4 (≈ 2.61 µM) | 1.4 (≈ 2.61 µM) | >4.0 | >10
CC(C)C1CCC2(C(=O)O)CCC3(C)C(CCC4C5(C)CCC(N=Cc6ccc(F)cc6F)C(C)(C)C5CCC43C)C12 (centres unmarked) [Derivative 1065] | 1.0 (≈ 1.72 µM) | 3.4 (≈ 5.84 µM) | 2.6 (≈ 4.47 µM) | 4.9 (≈ 8.42 µM) | 1.9 (≈ 3.27 µM) | 1.4 (≈ 2.41 µM) | 2.5 (≈ 4.3 µM)
C=C(C)C1CCC2(C(=O)O)CCC3(C)C(CCC4C5(C)CCC(OC(=O)c6cccc(C(F)(F)F)c6)C(C)(C)C5CCC43C)C12 (centres unmarked) [Derivative 939] | 1.4 (≈ 2.23 µM) | 2.7 (≈ 4.29 µM) | 4.0 (≈ 6.36 µM) | >10 | 5.7 (≈ 9.06 µM) | >4.0 | >10
COc1ccc(NNC2CCC3(C)C(CCC4(C)C3CCC3C5C(C(C)C)CCC5(C(=O)O)CCC34C)C2(C)C)cc1 (centres unmarked) [Derivative 912] | 1.0 (≈ 1.73 µM) | >4 | 7.0 (≈ 12.1 µM) | 0.35 (≈ 0.605 µM) | 1.2 (≈ 2.07 µM) | – | 8.5 (≈ 14.7 µM)
CC(C)C1CCC2(C(=O)O)CCC3(C)C(CCC4C5(C)CCC(OC(=O)c6cccc(C(F)(F)F)c6)C(C)(C)C5CCC43C)C12 (centres unmarked) [Derivative 940] | 0.4 (≈ 0.634 µM) | 2.6 (≈ 4.12 µM) | 5.4 (≈ 8.56 µM) | >10 | 0.8 (≈ 1.27 µM) | 3.8 (≈ 6.02 µM) | >4
C=C(C)C1CCC2(C(=O)O)CCC3(C)C(CCC4C5(C)CCC(OS(C)(=O)=O)C(C)(C)C5CCC43C)C12 (centres unmarked) [Derivative 751] | 0.65 (≈ 1.22 µM) | 5 (≈ 9.35 µM) | 7.0 (≈ 13.1 µM) | – | >4 | – | >10
C=C(C)C1CCC2(C(=O)O)CCC3(C)C(CCC4C5(C)CCC(OC(=O)c6cc(F)cc(F)c6)C(C)(C)C5CCC43C)C12 (centres unmarked) [Derivative 935] | 0.6 (≈ 1.01 µM) | 1.2 (≈ 2.01 µM) | >10 | >10 | 2.6 (≈ 4.36 µM) | – | 3.2 (≈ 5.36 µM)
